Reference: patent US10766903B2 (ALMAC DISCOVERY LIMITED, priority 2016, dated 2020)
Values after ≈ are worked out from the molar mass of the structure shown. Read-outs that look alike come from different tables or passages of the source.

What was measured:
SJSA-1 cells = assay: p53, p21 and MDM2 protein levels by western blotting in SJSA-1; type: cell-based; conditions: SJSA-1, 24 h treatment
Description: This osteosarcoma cell line with a known functional p53 pathway was used as a second model for these experiments. Cells were treated as described above and samples analysed by western blotting as indicated. Similar observations were made with stabilisation of p53, p21 induction and MDM2 decreased levels in a concentration dependent manner.
p53, p21 and MDM2 Protein Levels

HCT116 cells = assay: p53, p21 and MDM2 protein levels by western blotting in HCT116; type: cell-based; conditions: HCT116, 24 h treatment
Kinetic solubility assay = type: physicochemical; conditions: PBS buffer pH 7.4 with 2% DMSO, aqueous buffer, kinetic from dmso stock, PBS buffer pH 7.4, 2% DMSO, RT, read-out: KSol
Description: Samples were prepared by adding 4 μL of the 10 mM compound DMSO stock solutions into 196 μL of PBS buffer pH 7.4 in the 96 well filter plates, yielding a compound concentration of 200 μM and 2% DMSO. The PBS buffer pH7.4 was prepared by Genentech media lab. Filter plates were sealed with aluminum sealing film and shaken at RT at 1000 rpm. After 24 h, the solutions were filtered into a clean 96 well plates utilizing a vacuum manifold. After filtration, some precipitate was often observed at the bottom of the filtration plate wells. Most of the precipitates appeared to be crystalline under a polarizing light microscope. […]
Samples were detected and analyzed using UV 254 nm and CLND. UV 254 nm is used primarily to confirm the sample purity but in rare cases, is also used to quantify the concentration of compounds with no nitrogens, where additional work was done to create a compound specific calibration curve. […] Sample quantification was accomplished by CLND peak intensity, the calibration curve, and the number of nitrogen contained in the compound. One calibration curve of caffeine was used for solubility quantitative determination. […] The number of nitrogens in a compound used for this quantification needs to be corrected for the actual configuration of the nitrogen in the compound. […]

USP7 = USP7 (Homo sapiens (Human), UniProt Q93009); assay: USP7 fluorescence polarisation (FP) biochemical assay, ubiquitin-Lys-TAMRA substrate; conditions: read-out: USP7 IC50
How it was run: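 Full-length His6-USP7 (2.5 nM) incubated ± inhibitor (8-point dilutions, 200 to 0.1 μM before addition) in 50 mM HEPES pH 7.2, 150 mM NaCl, 0.5 mM EDTA, 5 mM DTT, 0.05% BSA, 0.05% CHAPS. Ubiquitin-Lys-TAMRA cleavage followed by FP (ex 530/em 575 nm) every 15 min for 1.5 h; normalised to no-compound control.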

LNCaP cells = assay: LNCaP proliferation assay (CellTiter-Glo); type: cell-based; conditions: Homo sapiens, Table 1, cell viability after 168 h
Description: LNCaP cells from ATCC, were seeded in 96 well plate format (typically 2500 cells/well) in their growth media (RPMI, Life Technologies #52400-025+10% Fetal Calf Serum, Life Technologies #10500-064) and treated after 24 h with increasing concentration of compound from 0 to 30 μM. Cell viability was assessed after 168 h by CellTiter-Glo® as recommended by the manufacturer's instructions (Promega). Analysis and EC50 values were derived using GraphPadPrism.

[1] = Table 4, biochemical assay, average of at least duplicate experiments
[2] = Table 1, R9a = H versus R9a = Cl

Sequence of USP7 (Q93009 whole entry): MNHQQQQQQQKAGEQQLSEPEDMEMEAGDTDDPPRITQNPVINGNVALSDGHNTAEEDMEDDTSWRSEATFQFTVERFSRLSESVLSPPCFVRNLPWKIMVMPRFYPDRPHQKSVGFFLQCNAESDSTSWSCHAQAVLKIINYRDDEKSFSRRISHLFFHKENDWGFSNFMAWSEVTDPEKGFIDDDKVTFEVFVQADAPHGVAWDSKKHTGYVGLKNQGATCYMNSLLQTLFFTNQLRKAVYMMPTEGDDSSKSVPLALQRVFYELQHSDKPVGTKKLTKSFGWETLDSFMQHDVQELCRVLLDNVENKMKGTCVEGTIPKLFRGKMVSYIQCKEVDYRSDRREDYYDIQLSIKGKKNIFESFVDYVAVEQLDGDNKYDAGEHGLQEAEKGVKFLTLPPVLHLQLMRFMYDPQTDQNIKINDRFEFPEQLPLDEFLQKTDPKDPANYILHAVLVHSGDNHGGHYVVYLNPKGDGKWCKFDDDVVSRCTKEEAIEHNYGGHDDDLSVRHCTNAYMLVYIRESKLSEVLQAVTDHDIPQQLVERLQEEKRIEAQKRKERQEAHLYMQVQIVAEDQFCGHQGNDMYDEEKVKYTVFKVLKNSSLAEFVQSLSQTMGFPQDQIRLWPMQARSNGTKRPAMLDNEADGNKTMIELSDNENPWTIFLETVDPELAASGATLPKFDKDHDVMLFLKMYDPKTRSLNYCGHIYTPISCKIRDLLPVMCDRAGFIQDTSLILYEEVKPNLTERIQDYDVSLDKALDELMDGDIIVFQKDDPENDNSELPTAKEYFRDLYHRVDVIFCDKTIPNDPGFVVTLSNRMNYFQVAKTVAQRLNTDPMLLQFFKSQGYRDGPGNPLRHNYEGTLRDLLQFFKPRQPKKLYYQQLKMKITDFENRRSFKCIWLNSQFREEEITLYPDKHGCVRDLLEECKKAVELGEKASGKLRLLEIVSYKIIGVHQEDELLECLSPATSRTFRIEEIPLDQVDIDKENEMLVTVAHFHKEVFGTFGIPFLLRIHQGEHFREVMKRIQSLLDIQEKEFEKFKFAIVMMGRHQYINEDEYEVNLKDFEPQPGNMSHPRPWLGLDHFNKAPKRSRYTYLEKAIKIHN

Row | SMILES | solubility kinetic at 24 h (Kinetic solubility assay) [µM] | IC50 (USP7; [1]) [nM] | EC50 (LNCaP cells) [nM] | IC50 (USP7; [2]) [nM] | p53, p21 and MDM2 protein levels (SJSA-1 cells) | p53, p21 and MDM2 protein levels (HCT116 cells)
1 | C[C@H](CC(=O)N1CCC(O)(Cn2cnc3c(-c4cccc(N)c4)n(C)nc3c2=O)CC1)c1ccccc1 [Example 29, (R)-3-(3-Aminophenyl)-6-((4-hydroxy-1-(3-phenylbutanoyl)piperidin-4-yl)methyl)-2-methyl-2H-pyrazolo[4,3-d]pyrimidin-7(6H)-one] |  |  |  |  | dose-dependent p53 stabilisation, p21 induction and concomitant decrease in MDM2 levels | dose-dependent p53 stabilisation, p21 induction and concomitant decrease in MDM2 levels
2 | CC1(C(=O)N2CCC(O)(Cn3cnc4c(cc(Cl)n4-c4ccccc4)c3=O)CC2)CC1 [Example 200, 6-Chloro-3-((4-hydroxy-1-(1-methylcyclopropanecarbonyl)piperidin-4-yl)methyl)-7-phenyl-3H-pyrrolo[2,3-d]pyrimidin-4(7H)-one] | 173 (≈ 76.3 µg/mL) | 250 to 999 |  |  |  | 
3 | CC1(C(=O)N2CCC(O)(Cn3cnc4c(cc(Cl)n4-c4ccc5c(c4)OCO5)c3=O)CC2)CC1 [Example 202, 7-(Benzo[d][1,3]dioxol-5-yl)-6-chloro-3-((4-hydroxy-1-(1-methylcyclopropanecarbonyl)piperidin-4-yl)methyl)-3H-pyrrolo[2,3-d]pyrimidin-4(7H)-one] |  | 250 to 999 | 51 | 250 |  | 
4 | Cn1cc(-c2cccc(-n3c(Cl)cc4c(=O)n(CC5(O)CCN(C(=O)C6(C)CC6)CC5)cnc43)c2)cn1 [Example 212, 6-Chloro-3-((4-hydroxy-1-(1-methylcyclopropanecarbonyl)piperidin-4-yl)methyl)-7-(3-(1-methyl-1H-pyrazol-4-yl)phenyl)-3H-pyrrolo[2,3-d]pyrimidin-4(7H)-one] |  | < 250 | 55 | 140 |  | 

More lines, main results first:

Row | solubility kinetic at 24 h (Kinetic solubility assay) [µM] | IC50 (USP7; [1]) [nM] | EC50 (LNCaP cells) [nM] | IC50 (USP7; [2]) [nM] | SMILES | p53, p21 and MDM2 protein levels (SJSA-1 cells) | p53, p21 and MDM2 protein levels (HCT116 cells)
5 |  | < 250 | 22 | 220 | CC1(C(=O)N2CCC(O)(Cn3cnc4c(cc(Cl)n4-c4ccc(Cl)cc4)c3=O)CC2)CC1 [Example 203, 6-Chloro-7-(4-chlorophenyl)-3-((4-hydroxy-1-(1-methylcyclopropanecarbonyl)piperidin-4-yl)methyl)-3H-pyrrolo[2,3-d]pyrimidin-4(7H)-one] |  | 
6 |  | 1000 to 200000 |  |  | C[C@H](CC(=O)N1CCC(O)(Cn2cnc3c(-c4cccc(C(=O)O)c4)n(C)nc3c2=O)CC1)c1ccccc1 [Example 244, (R)-3-(6-((4-Hydroxy-1-(3-phenylbutanoyl)piperidin-4-yl)methyl)-2-methyl-7-oxo-6,7-dihydro-2H-pyrazolo[4,3-d]pyrimidin-3-yl)benzoic Acid] |  | 
7 |  | 1000 to 200000 |  |  | Cn1nc2c(=O)n(CC3(O)CCN(C(=O)C4(C)CC4)CC3)cnc2c1-c1ccc(C(=O)O)cc1 [Example 245, 4-(6-((4-Hydroxy-1-(1-methylcyclopropane-1-carbonyl)piperidin-4-yl)methyl)-2-methyl-7-oxo-6,7-dihydro-2H-pyrazolo[4,3-d]pyrimidin-3-yl)benzoic Acid] |  | 
